Measured values as given in article PMC9916762, “Impact of Hydrophobic Chains in Five-Coordinate Glucoconjugate Pt(II) Anticancer Agents” (International Journal of Molecular Sciences, 2023).

Tests used:
[1] = biological target: T1, hen egg white lysozyme (HEWL) (Gallus gallus, UniProt P00698); assay: X-ray structure of adducts with HEWL; type: binding
T1 construct: model protein hen egg white lysozyme (HEWL); purchased Merck KGaA (Darmstadt, Germany); host or cells: hen egg white (natural source, by the protein's name)
Description: To obtain information on the reactivity of 1-Me,Me with proteins, the X-ray structure of the adducts that the Pt compound forms with HEWL was solved.
The structures were obtained using crystals grown in 20% ethylene glycol, 0.1 M sodium acetate buffer at pH 4.0, and 0.6 M sodium nitrate (Structure A, Figure 8A) and in 2.0 M sodium formate and 0.1 M Hepes at pH 7.5 (Structure B, Figure 8B), refined at 1.25 and 1.33 Å resolutions, respectively (Table S2).
HEWL crystals were grown using the hanging drop vapour diffusion method and the following reservoirs: • (a) 20% ethylene glycol, 0.10 M sodium acetate at pH 4.0, and 0.60 M sodium nitrate • (b) 2.0 M sodium formate and 0.1 M HEPES at pH 7.5.
The crystals of the protein adduct with 1-Me,Me were obtained by the soaking procedure. The HEWL crystals were soaked in a solution consisting of 83% reservoir, 17% DMSO, and 3.3 mM 1-Me,Me.
The structures of the Pt–HEWL adducts were solved by the molecular replacement method, using the HEWL coordinates deposited in the PDB under the accession code 193L [40] as a model. Refinements were carried out with a CCP4 REFMAC5 [46], and the model building, adjustments, and inspection of the electron density maps was manually carried out using WinCoot.
The Pt binding sites were unambiguously identified by comparing 2Fo–Fc, residual Fo–Fc, and anomalous difference electron density maps. […]

[2] = In-solution stability in DMSO (1H NMR, UV-vis); type: physicochemical; details: 50 μM in DMSO, 25 °C, up to 7 days
Description: The stability of the complexes in DMSO-d6, the solvent used to prepare stock solutions for biological experiments, was evaluated by recording their UV–vis absorptions and ^1H-NMR spectra over time.
UV–vis absorption spectra of 1-Me,Me were recorded in DMSO for 5 h and then after 24 h and 7 days (Figure 5). […] In fact, the λmax experienced a blue shift from 278 to 269 nm, giving rise to an isosbestic point at 275 nm. In addition, a decrease in the absorbance of the shoulder at 300 nm is observed, together with an absorbance increase in the shoulder at 260 nm. […] It is highly probable that a slow release of ethene and dmphen can occur. This would lead to the formation of the square planar species of type 4-R,R’, as reported in Scheme 3.
In all cases, no cleavage of the Pt–carbene bond was detected. Figure 6 reports the ^1H NMR spectra of 1-Me,Oct after dissolution, 1.5, 5, and 24 h.
The stability of the 1-R,R’ complexes in DMSO was studied by dissolving 5 mg of each complex in 250 μL of DMSO-d6 and then diluting 200 μL of this solution with 300 μL of DMSO-d6. The stability of the 1-R,R’ complexes in aqueous solvents was studied by dissolving 5 mg of each complex in 250 μL of DMSO-d6 and then diluting 50 μL of this solution with 500 μL of D2O. The ^1H-NMR spectra of the resulting solutions were recorded over time. […]

[3] = In-solution stability in aqueous solvents (1H NMR, UV-vis); type: physicochemical
Description: Attempts to evaluate their stability in aqueous solutions were complicated due the poor solubility of the complexes in water. Only for 1-Me,Me was it possible to prepare a solution in the mixed solvent D2O:DMSO-d6 10:1. […] To further study the stability of 1-Me,Me in aqueous solvents, UV–vis absorption spectra over time were collected under the two experimental conditions (20% ethylene glycol, 0.1 M sodium acetate buffer at pH 4.0 and 0.6 M sodium nitrate and 2.0 M sodium formate, 0.1 M Hepes buffer at pH 7.5), used to obtain crystals of the adducts with the model protein hen egg white lysozyme (HEWL). HEWL has been used as a model system to study the interaction with proteins of several metallodrugs, including cisplatin [31, 32, 33], oxaliplatin [34, 35], and carboplatin [31, 32]. […] Over time, a red shift of the λmax from 275 to 278 nm and of the peak at 313 nm, which shifted up to 317 nm, was observed. […] Such results convinced us that five-coordinate compounds are the species administered to cells if DMSO stock solutions are immediately diluted in an aqueous medium.
The stability of the 1-R,R’ complexes in DMSO was studied by dissolving 5 mg of each complex in 250 μL of DMSO-d6 and then diluting 200 μL of this solution with 300 μL of DMSO-d6. […] The ^1H-NMR spectra of the resulting solutions were recorded over time. […]

[4] = Octanol/water partition coefficient, shake-flask method; type: physicochemical; details: n-octanol/water, UV-vis
Description: The partition coefficients in octanol/water (log Po/w) were measured using the shake-flask method, by calculating the equilibrium concentrations through UV spectra (Table 1).
Partition coefficients for the platinum complexes were determined in triplicate in an n-octanol/water system, with different ratios (1:1, 1:2, 2:1). Each complex was dissolved in n-octanol at the concentrations 16.7, 12.5, or 10 μM and subsequently, an appropriate volume of water was added. The mixtures were shaken mechanically for 1 h to ensure the distribution between the two solvent phases. The samples were then centrifuged (13,000 rpm, 10 min). Afterwards, the platinum concentration was determined in the octanol phases by UV–vis spectrophotometry, after collecting a calibration line for each complex. Results are expressed as the logarithm of the partition coefficient of octanol/water (log Po/w), which is the logarithm of the concentration of platinum in the n-octanol divided by its concentration in the aqueous layer.

With “Platinum(1+), (2,9-dimethyl-1,10-phenanthroline- N1,N10)(η2-ethene)methyl[1,3-dihydro-1,3-dimethyl-4-[1-[2,3,4,6-tetrakis-O-(acetyl)-β-D-glucopyranosyl]-1H-1,2,3-triazol-4-yl]-2H-imidazol-2-ylidene], 1,1,1-trifluoromethanesulfonate [1-Me,Me]” the “Pt binding sites on HEWL” value ([1]; Structure A: 20% ethylene glycol, 0.1 M sodium acetate pH 4.0, 0.6 M sodium nitrate) was “two Pt binding sites were observed”, the “Pt binding sites on HEWL” value ([1]; Structure B: 2.0 M sodium formate, 0.1 M Hepes pH 7.5) was “a single Pt binding site was observed” and the “stability, UV-vis spectra over time” value [2] was “poor stability”. The “stability, UV-vis spectra over time” value ([3]; 50 μM, 2.0 M sodium formate, 0.1 M Hepes buffer pH 7.5) was “stable over time”, the “stability, NMR spectra over time” value ([3]; D2O:DMSO-d6 10:1, after 24 h) was “no appreciable changes” and the “Log Po/w” value [4] was 0.42.
